Test results reported in patent publication US20080070237A1, “Npas3 Mutant Mice and Uses for Screening and Testing Therapies for Schizophrenia and Related Neurological Disorders” (priority 2003, published 2008).
Where a name gives a salt, the structure may show the parent alone. Read-outs that look alike come from different tables or passages of the source.

Experiments:
[1] = test system: Npas3+/+ control mice; assay type: in vivo, mouse
Experimental: (§1) Locomotor Activity Tests. For all locomotor experiments, activity is measured in a 41×41×30 cm Omnitech Digiscan activity monitor equipped with 16 pairs of photodetector-LED beams along the x and y axis. (Accuscan Electronics, Columbus, Ohio). […] After the acclimation period, Baseline Locomoter Activity Test results are recorded for each test mouse. Subsequently, locomotor activity is tested following pharmacological challenges of three neurotransmitter pathways involved in schizophrenia and other neurological disorders. The pathways and the drugs used to challenge each include:
(§2) a. Methamphetamine (a dopamine pathway agonist) 1.0 mg/kg in the form of D-methamphetamine-HCL (Sigma; St. Louis, Mo.). Methamphetamine is a strong dopamine agonist that will activate D1 and D2 receptor signaling.
(§3) b. Haloperidol (a dopamine pathway antagonist) 0.3 mg/kg or 1.0 mg/kg (Tocris; Ellisville, Mo.).
(§4) The test drug is 0.3 mg/kg clozapine (Sigma; St. Louis, Mo.). An atypical neuroleptic agent, clozapine, which has a high affinity for serotonin 5-HT2 and 5-HT6 receptors, is administered to determine the involvement of serotonergic pathways. Although clozapine can also antagonize both D1 and D2-like receptors, ten times higher concentrations are necessary to inhibit dopamine-dependent hyperactivity
(§5) The test drugs are 1.0 mg/kg MK-801 or 0.3 mg/kg MK-801 (ICN Biomedicals Inc.; Aurora, Ohio). MK-801 is a noncompetitive NMDA receptor antagonist.
(§6) Each drug is administered in a subcutaneous injection volume of 5 mL/kg body weight. Post-challenge activity is measured for three hours. Horizontal activity counts (scored by visual observance or breaking a light beam) and total distance are recorded during the pre- and post-challenge periods at 3-minute intervals with VersaMax software. All Locomoter Activity Tests are performed on mice at 7-9 weeks of age, with n=12. All values are expressed as mean±SEM. Statistical analyses are performed using appropriate analysis of variance (ANOVA) followed by adapted post hoc comparisons.

[2] = test system: Npas3−/− mice; assay type: in vivo, mouse
Experimental: as §1, §2, §3, §4, §5, §6

[3] = FIG. 28 dose of MK-801 (not stated at the place; b105: 1.0 or 0.3 mg/kg), subcutaneous
[4] = FIG. 28 dose of MK-801, subcutaneous
[5] = lower dose 0.1 mg/kg, data not shown
[6] = 0.3 mg/kg subcutaneous, post-challenge activity measured for three hours
[7] = 1.0 mg/kg subcutaneous, post-challenge activity measured for three hours

## C[C@]12N[C@H](Cc3ccccc31)c1ccccc12 [MK-801]
[1]; [3]
  horizontal locomotor activity after drug challenge: increased locomotor activity
[1]; [4]
  stereotype (stereotypy) after drug challenge: did not increase the levels of stereotype
[1]; [5]
  locomotor activity after drug challenge: did not induce hyperactivity
[2]; [3]
  horizontal locomotor activity after drug challenge: dramatic suppression of locomotor activity
[2]; [4]
  stereotype (stereotypy) after drug challenge: induced hyperstereotype
[2]; [5]
  locomotor activity after drug challenge: potently activated locomotion

## O=C(CCCN1CCC(O)(c2ccc(Cl)cc2)CC1)c1ccc(F)cc1 [haloperidol, Haloperidol]
[1]; [6]
  horizontal locomotor activity after drug challenge: substantial impairment in locomotor activity
[2]; [6]
  horizontal locomotor activity after drug challenge: partial reduction in activity

## CN[C@@H](C)Cc1ccccc1 [methamphetamine, D-methamphetamine-HCL]
[1]; [7]
  horizontal locomotor activity after drug challenge: increases locomotor behavior
[2]; [7]
  horizontal locomotor activity after drug challenge: failure of methamphetamine to increase locomotor activity
